According to PubChem BioAssay AID1845206 (Molecular Pharmacology Branch, DTP, NCI, 2023):

Test system: NCI-H1618 multicellular tumor spheroid viability
Assay: Anticancer human tumor NCI-H1618 cell line growth inhibition;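 further: spheroids exposed to agents for 7 days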
Conditions: for IC50: curve of first compound; for viability, T/C: stronger effect = lower value
Summary of the method: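 Complex tumor spheroids combined malignant cells with endothelial cells and mesenchymal stem cells. DNA-damaging drugs and DNA repair inhibitors were tested alone and in combination, at half-log dilutions down from clinical Cmax (top 10 microM if Cmax unknown), 0.25% DMSO final.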

With `CNCc1ccc(-c2cc(-c3nc(-c4ccc(S(=O)(=O)C(C)C)cc4)cnc3N)on2)cc1` + COc1cc2c(cc1O)CCNC21CSC2c3c(OC(C)=O)c(C)c4c(c3C(COC1=O)N1C(O)C3Cc5cc(C)c(OC)c(O)c5C(C21)N3C)OCO4 the IC50 (second compound 30 pM) was 224 nM, the IC50 (second compound 94.9 pM) was 130 nM and the IC50 (second compound 0.0003 µM) was under 9.49 nM. For the same compound, the IC50 (second compound 0.000949 µM) was under 9.49 nM, the IC50 (second compound 0.003 µM) was under 9.49 nM and the viability, T/C (second compound 30 pM, first compound 0.00949 µM) was 103%. The viability, T/C (second compound 30 pM, first compound 0.03 µM) was 100%, the viability, T/C (second compound 30 pM, first compound 0.0949 µM) was 110% and the viability, T/C (second compound 30 pM, first compound 0.3 µM) was 31.5%. The viability, T/C (second compound 30 pM, first compound 0.949 µM) was 5.25%, the viability, T/C (second compound 30 pM, first compound 3 µM) was 3.91% and the viability, T/C (second compound 94.9 pM, first compound 0.00949 µM) was 98.5%. For the same compound, the viability, T/C (second compound 94.9 pM, first compound 0.03 µM) was 93.6%, the viability, T/C (second compound 94.9 pM, first compound 0.0949 µM) was 59.5% and the viability, T/C (second compound 94.9 pM, first compound 0.3 µM) was 22.3%. The viability, T/C (second compound 94.9 pM, first compound 0.949 µM) was 2.88%, the viability, T/C (second compound 94.9 pM, first compound 3 µM) was 2.64% and the viability, T/C (second compound 0.0003 µM, first compound 0.00949 µM) was 11.2%. It also gave a viability, T/C (second compound 0.0003 µM, first compound 0.03 µM) of 17.8%, a viability, T/C (second compound 0.0003 µM, first compound 0.0949 µM) of 58.8% and a viability, T/C (second compound 0.0003 µM, first compound 0.3 µM) of 12.6%. For the same compound, the viability, T/C (second compound 0.0003 µM, first compound 0.949 µM) was 2.49%, the viability, T/C (second compound 0.0003 µM, first compound 3 µM) was 4.13% and the viability, T/C (second compound 0.000949 µM, first compound 0.00949 µM) was 3.91%. For the same compound, the viability, T/C (second compound 0.000949 µM, first compound 0.03 µM) was 15.3%, the viability, T/C (second compound 0.000949 µM, first compound 0.0949 µM) was 6.24% and the viability, T/C (second compound 0.000949 µM, first compound 0.3 µM) was 3.07%. For the same compound, the viability, T/C (second compound 0.000949 µM, first compound 0.949 µM) was 3.69%, the viability, T/C (second compound 0.000949 µM, first compound 3 µM) was 2.71% and the viability, T/C (second compound 0.003 µM, first compound 0.00949 µM) was 3.93%. The viability, T/C (second compound 0.003 µM, first compound 0.03 µM) was 6.21%, the viability, T/C (second compound 0.003 µM, first compound 0.0949 µM) was 4.41% and the viability, T/C (second compound 0.003 µM, first compound 0.3 µM) was 3.43%. The viability, T/C (second compound 0.003 µM, first compound 0.949 µM) was 2.55% and the viability, T/C (second compound 0.003 µM, first compound 3 µM) was 0.78%.

`[2H]c1nc(C)nc([2H])c1-c1cc(NC[C@@H](C)c2cccc3c(C(=O)NC)ccnc23)ncn1` + Cn1nnc2c(C(N)=O)ncn2c1=O showed an IC50 (second compound 1 µM) of over 10000 nM, an IC50 (second compound 3.16 µM) of under 31.6 nM and an IC50 (second compound 10 µM) of under 31.6 nM. The IC50 (second compound 31.6 µM) was under 31.6 nM, the IC50 (second compound 100 µM) was under 31.6 nM and the viability, T/C (second compound 1 µM, first compound 0.0316 µM) was 91.3%. For the same compound, the viability, T/C (second compound 1 µM, first compound 0.1 µM) was 91.9%, the viability, T/C (second compound 1 µM, first compound 0.316 µM) was 85.3% and the viability, T/C (second compound 1 µM, first compound 1 µM) was 85.3%. It also gave a viability, T/C (second compound 1 µM, first compound 3.16 µM) of 89.2%, a viability, T/C (second compound 1 µM, first compound 10 µM) of 89.3% and a viability, T/C (second compound 3.16 µM, first compound 0.0316 µM) of 33.1%. The viability, T/C (second compound 3.16 µM, first compound 0.1 µM) was 29.5%, the viability, T/C (second compound 3.16 µM, first compound 0.316 µM) was 21.9% and the viability, T/C (second compound 3.16 µM, first compound 1 µM) was 28.1%. It also gave a viability, T/C (second compound 3.16 µM, first compound 3.16 µM) of 13.1%, a viability, T/C (second compound 3.16 µM, first compound 10 µM) of 27.3% and a viability, T/C (second compound 10 µM, first compound 0.0316 µM) of 4.05%. The viability, T/C (second compound 10 µM, first compound 0.1 µM) was 4.95%, the viability, T/C (second compound 10 µM, first compound 0.316 µM) was 5.87% and the viability, T/C (second compound 10 µM, first compound 1 µM) was 7.24%. It also gave a viability, T/C (second compound 10 µM, first compound 3.16 µM) of 4.35%, a viability, T/C (second compound 10 µM, first compound 10 µM) of 11.5% and a viability, T/C (second compound 31.6 µM, first compound 0.0316 µM) of 20.8%. The viability, T/C (second compound 31.6 µM, first compound 0.1 µM) was 19.9%, the viability, T/C (second compound 31.6 µM, first compound 0.316 µM) was 11.3% and the viability, T/C (second compound 31.6 µM, first compound 1 µM) was 15.1%. The viability, T/C (second compound 31.6 µM, first compound 3.16 µM) was 6.28%, the viability, T/C (second compound 31.6 µM, first compound 10 µM) was 5.54% and the viability, T/C (second compound 100 µM, first compound 0.0316 µM) was 61.9%. The viability, T/C (second compound 100 µM, first compound 0.1 µM) was 36.3%, the viability, T/C (second compound 100 µM, first compound 0.316 µM) was 22.1% and the viability, T/C (second compound 100 µM, first compound 1 µM) was 59%. The viability, T/C (second compound 100 µM, first compound 3.16 µM) was 46.6% and the viability, T/C (second compound 100 µM, first compound 10 µM) was 34.6%.
